# Experimental data from PubChem BioAssay (NCI).
#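 Growth conditions: 96-well plates. Treatment: test compound, 48 hours, 5 concentrations. Analysis: linear interpolation between bracketing concentrations; unreached endpoints set to highest concentration. GI50 marks 50% less growth. TGI denotes the concentration required for complete inhibition of growth.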
# Key:
# Assay in all cases: NCI tumour cell line growth inhibition, 48 h
# A498 renal = test system: A498 renal
# MCF7 breast = test system: MCF7 breast
# RXF 393 renal = test system: RXF 393 renal
# HOP-92 NSCLC = test system: HOP-92 NSCLC
# SNB-19 CNS = test system: SNB-19 CNS
# SF-539 CNS = test system: SF-539 CNS
# HT29 colon = test system: HT29 colon
# SK-MEL-28 melanoma = test system: SK-MEL-28 melanoma
# MDA-MB-435 = test system: MDA-MB-435
# HCT-15 colon = test system: HCT-15 colon
# UACC-62 melanoma = test system: UACC-62 melanoma
# ACHN renal = test system: ACHN renal
# U251 CNS = test system: U251 CNS
# BT-549 breast = test system: BT-549 breast
# SR leukemia = test system: SR leukemia
# SNB-75 CNS = test system: SNB-75 CNS
# RPMI-8226 leukemia = test system: RPMI-8226 leukemia
# M14 melanoma = test system: M14 melanoma
# KM12 colon = test system: KM12 colon
# OVCAR-8 ovarian = test system: OVCAR-8 ovarian
# UACC-257 melanoma = test system: UACC-257 melanoma
# NCI/ADR-RES ovarian = test system: NCI/ADR-RES ovarian
# SF-295 CNS = test system: SF-295 CNS
# COLO 205 colon = test system: COLO 205 colon
# HCT-116 colon = test system: HCT-116 colon
# TK-10 renal = test system: TK-10 renal
# LOX IMVI melanoma = test system: LOX IMVI melanoma
# CAKI-1 renal = test system: CAKI-1 renal
# SF-268 CNS = test system: SF-268 CNS
compound,measurement,setting,value
O=C(c1ccccc1)N(C(=S)NCCc1ccc(Cl)cc1)c1ccc(Cl)cc1,GI50,A498 renal,16.3 µM
same,TGI,A498 renal,30.7 µM
same,GI50,MCF7 breast,3.58 µM
same,TGI,MCF7 breast,19.4 µM
same,GI50,RXF 393 renal,12.8 µM
same,TGI,RXF 393 renal,28.6 µM
same,GI50,HOP-92 NSCLC,7.3 µM
same,TGI,HOP-92 NSCLC,21 µM
same,GI50,SNB-19 CNS,15.9 µM
same,TGI,SNB-19 CNS,30.1 µM
same,GI50,SF-539 CNS,5.93 µM
same,TGI,SF-539 CNS,19.1 µM
same,GI50,HT29 colon,5.3 µM
same,TGI,HT29 colon,58.4 µM
same,GI50,SK-MEL-28 melanoma,12.7 µM
same,TGI,SK-MEL-28 melanoma,27 µM
same,GI50,MDA-MB-435,4.67 µM
same,TGI,MDA-MB-435,20.4 µM
same,GI50,HCT-15 colon,3.57 µM
same,TGI,HCT-15 colon,14.4 µM
same,GI50,UACC-62 melanoma,11.4 µM
same,TGI,UACC-62 melanoma,23.8 µM
same,GI50,ACHN renal,5.68 µM
same,TGI,ACHN renal,17.4 µM
same,GI50,U251 CNS,4.38 µM
same,TGI,U251 CNS,14.9 µM
same,GI50,BT-549 breast,11.8 µM
same,TGI,BT-549 breast,25.8 µM
same,GI50,SR leukemia,5.54 µM
same,TGI,SR leukemia,> 100 µM
same,GI50,SNB-75 CNS,13.5 µM
same,TGI,SNB-75 CNS,27.9 µM
same,GI50,RPMI-8226 leukemia,2.08 µM
same,TGI,RPMI-8226 leukemia,5.66 µM
same,GI50,M14 melanoma,8.42 µM
same,TGI,M14 melanoma,25 µM
same,GI50,KM12 colon,4.24 µM
same,TGI,KM12 colon,15.3 µM
same,GI50,OVCAR-8 ovarian,19.1 µM
same,TGI,OVCAR-8 ovarian,35.3 µM
same,GI50,UACC-257 melanoma,18.2 µM
same,TGI,UACC-257 melanoma,34.6 µM
same,GI50,NCI/ADR-RES ovarian,16.2 µM
same,TGI,NCI/ADR-RES ovarian,30.9 µM
same,GI50,SF-295 CNS,14.6 µM
same,TGI,SF-295 CNS,31.9 µM
same,GI50,COLO 205 colon,6.83 µM
same,TGI,COLO 205 colon,23.1 µM
same,GI50,HCT-116 colon,7.11 µM
same,TGI,HCT-116 colon,23.7 µM
same,GI50,TK-10 renal,5.67 µM
same,TGI,TK-10 renal,19.7 µM
same,GI50,LOX IMVI melanoma,2.4 µM
same,TGI,LOX IMVI melanoma,5.3 µM
same,GI50,CAKI-1 renal,5.48 µM
same,TGI,CAKI-1 renal,20.9 µM
same,GI50,SF-268 CNS,5.67 µM
